{
  "source": "patent US6486166B1",
  "about": "“Suppression of cyclin kinase 2 activity for prevention and treatment of DNA viral infections” (Board of Regents, The University of Texas, priority 1997, dated 2002)",
  "key": {"[1]": {"tested_on": "HCMV", "experiment": "HCMV DNA abundance in infected LU cells by slot blot hybridization", "assay_type": "cell-based, Human cytomegalovirus strain AD169", "conditions": "density-arrested LU cells, 72 hr post-infection"}, "[2]": {"tested_on": "HCMV", "experiment": "infectious HCMV yield by plaque assay", "assay_type": "cell-based, Human cytomegalovirus strain AD169"}, "[3]": {"experiment": "tolerated dose in animals", "assay_type": "in vivo", "conditions": "printed 'tolerated by rate'", "from_the_text": "The preferred dosage of inhibitor of cyclin E/Cdk2 activity in a parenteral administration will vary, depending upon the extent of the virus infection, the severity of the symptoms associated with the infection and patient age, weight and medical history. The number of administrations of the parenteral composition will also vary according to the response of the individual patient to the treatment. In one exemplary application. the dosage of inhibitor of cyclin E/Cdk2 activity would vary with the type of disease and the route of administration. Further studies with animal models of infection will completely define projected doses. […] Weaker Cdk2 inhibitors will be needed at higher concentrations, and stronger, at lower."}, "[4]": {"tested_on": "HCMV-infected LU cells", "experiment": "hematoxylin and eosin staining of HCMV-infected LU cells", "conditions": "15 μM; 96 hr after infection"}, "[5]": {"tested_on": "non-infected LU cells", "experiment": "effects on non-infected LU cells (morphology, flow cytometry, BrdU incorporation)", "conditions": "15 μM for 96 hr"}, "[6]": {"tested_on": "HCMV-infected subconfluent LU cells", "experiment": "cell cycle distribution (DNA content by flow cytometry) after HCMV infection of subconfluent LU cells with PAA", "assay_type": "cell-based, human", "conditions": "for Percent Cells in phase G0/G1 / Percent Cells in phase G2/M / Percent Cells in phase S: HCMV 5 PFU/cell + PAA 100 μg/ml"}, "[7]": {"tested_on": "human lung fibroblasts", "conditions": "100 μg/ml (0.75 mM); cited from earlier work"}, "[8]": {"tested_on": "non-infected LU cells", "conditions": "human, 15 μM"}},
  "note": "Entries after “also recorded” stand apart in the source; their conditions may differ.",
  "data": [
    {"smiles": "CC[C@H](CO)Nc1nc(NCc2ccccc2)c2ncn(C(C)C)c2n1", "note": "[roscovitine]", "values": [
      {"measurement": "HCMV DNA abundance reduced", "setting": "[1]; 1 μM", "value": "~50", "unit": "%"},
      {"measurement": "viral DNA abundance reduced", "setting": "[1]; 10 μM", "value": "> 90", "unit": "%"},
      {"measurement": "infectious HCMV yields reduced", "setting": "[2]; 2.5 μM, 96 hr post-infection", "value": "> 90", "unit": "%"},
      {"measurement": "inhibition at 10 µM", "setting": "[2]; Human betaherpesvirus 5, 96 h, read-out: inhibition of infectious HCMV yields", "value": "> 99.9", "unit": "%"},
      {"measurement": "tolerated dose", "setting": "[3]", "value": 3, "unit": "µg/kg"},
      {"measurement": "morphology of HCMV-infected cells", "setting": "[4]", "value": "clearly dying or dead"},
      {"measurement": "morphological changes of non-infected LU cells", "setting": "[5]", "value": "no morphological changes; also recorded: did not present with any obvious morphological changes"},
      {"measurement": "cell cycle state of non-infected cells", "setting": "[5]; flow cytometry", "value": "arrested in G0/G1 or G2/M phase"}
    ]},
    {"smiles": "O=C(O)CP(=O)(O)O", "note": "[PAA, phosphonoacetic acid]", "values": [
      {"measurement": "Percent Cells in phase G0/G1", "setting": "[6]; 0 hours after treatment", "value": "93.3 (1.2) percent"},
      {"measurement": "Percent Cells in phase G2/M", "setting": "[6]; 0 hours after treatment", "value": "5.1 (1.0) percent"},
      {"measurement": "Percent Cells in phase S", "setting": "[6]; 0 hours after treatment", "value": "1.6 (0.2) percent"},
      {"measurement": "Percent Cells in phase G0/G1", "setting": "[6]; 24 hours after treatment", "value": "97.2 (0.4) percent"},
      {"measurement": "Percent Cells in phase G2/M", "setting": "[6]; 24 hours after treatment", "value": "1.9 (0.3) percent"},
      {"measurement": "Percent Cells in phase S", "setting": "[6]; 24 hours after treatment", "value": "0.9 (0.1) percent"},
      {"measurement": "Percent Cells in phase G0/G1", "setting": "[6]; 48 hours after treatment", "value": "97.1 (0.8) percent"},
      {"measurement": "Percent Cells in phase G2/M", "setting": "[6]; 48 hours after treatment", "value": "1.3 (0.4) percent"},
      {"measurement": "Percent Cells in phase S", "setting": "[6]; 48 hours after treatment", "value": "1.5 (0.4) percent"},
      {"measurement": "Percent Cells in phase G0/G1", "setting": "[6]; 72 hours after treatment", "value": "97.2 (0.3) percent"},
      {"measurement": "Percent Cells in phase G2/M", "setting": "[6]; 72 hours after treatment", "value": "0.9 (0.1) percent"},
      {"measurement": "Percent Cells in phase S", "setting": "[6]; 72 hours after treatment", "value": "1.9 (0.3) percent"},
      {"measurement": "increase in DNA content after HCMV infection", "setting": "[6]; subconfluent LU cells infected in the presence of PAA", "value": "no detectable increase in DNA content"},
      {"measurement": "effect on viral DNA replication", "setting": "[7]", "value": "blocks viral DNA replication"}
    ]},
    {"smiles": "Cn1cnc2c(NCc3ccccc3)nc(NCCO)nc21", "note": "[olomoucine]", "values": [
      {"measurement": "cells able to incorporate bromodeoxyuridine (BrdU) after removal of the inhibitor", "setting": "[8]", "value": "more than 70%"}
    ]}
  ]
}
